Source: ChEMBL document CHEMBL2016493, “Design, synthesis, synergistic antimicrobial activity and cytotoxicity of 4-aryl substituted 3,4-dihydropyrimidinones of curcumin” (Bioorg Med Chem Lett, 2012)
Activity calls are given as the source filed them. No cut-off for these calls is given here.

Key:
[1] = test system: Burkholderia pseudomallei; test: Antibacterial activity against Burkholderia pseudomallei NTCC 10274 at 20 uM/ml after 24 hrs by kirby-bauer method; type: functional; settings: for zone of inhibition at 20 µM: NTCC 10274, 24 h, read-out: IZ
Trichoderma viride [2] = test: Antifungal activity against Trichoderma viride MTCC 1107 at 40 uM/ml after 48 hrs by paper disc diffusion method; type: functional; settings: for zone of inhibition: MTCC 1107, 48 h, read-out: IZ
Trichoderma viride [3] = test: Antifungal activity against Trichoderma viride MTCC 1107 at 80 uM/ml after 48 hrs by paper disc diffusion method; type: functional; settings: MTCC 1107, 48 h, read-out: IZ
Escherichia coli [4] = test: Antibacterial activity against Escherichia coli ATCC 35218 at 40 uM/ml after 24 hrs by kirby-bauer method; type: functional; settings: for zone of inhibition at 40 µM: ATCC 35218, 24 h, read-out: IZ
Aspergillus flavus [5] = test: Antifungal activity against Aspergillus flavus MTCC 1021 at 160 uM/ml after 48 hrs by paper disc diffusion method; type: functional
Staphylococcus aureus = test: Antibacterial activity against Staphylococcus aureus ATCC 11632 at 160 uM/ml after 24 hrs by kirby-bauer method; type: functional
Escherichia coli [6] = test: Antibacterial activity against Escherichia coli ATCC 35218 at 160 uM/ml after 24 hrs by kirby-bauer method; type: functional; settings: ATCC 35218, 24 h, read-out: IZ
Salmonella typhimurium [7] = test: Antibacterial activity against Salmonella typhimurium ATCC 23564 at 160 uM/ml after 24 hrs by kirby-bauer method; type: functional, Salmonella enterica subsp. enterica serovar Typhimurium; settings: for inhibition zone (IZ): Salmonella enterica subsp. enterica serovar Typhimurium
Salmonella typhimurium [8] = test: Antibacterial activity against Salmonella typhimurium ATCC 23564 at 40 uM/ml after 24 hrs by kirby-bauer method; type: functional, Salmonella enterica subsp. enterica serovar Typhimurium; settings: Salmonella enterica, ATCC 23564, 24 h; read-out: IZ
[9] = test system: Burkholderia pseudomallei; test: Antibacterial activity against Burkholderia pseudomallei NTCC 10274 at 160 uM/ml after 24 hrs by kirby-bauer method; type: functional; settings: NTCC 10274, 24 h, read-out: IZ
QG-56 = test: Cytotoxicity against human QG56 cells after 48 hrs by MTT assay; type: functional, cell-based
Salmonella typhimurium [10] = test: Antibacterial activity against Salmonella typhimurium ATCC 23564 at 20 uM/ml after 24 hrs by kirby-bauer method; type: functional, Salmonella enterica subsp. enterica serovar Typhimurium; settings: Salmonella enterica, ATCC 23564, 24 h; read-out: IZ
Escherichia coli [11] = test: Antibacterial activity against Escherichia coli ATCC 35218 at 80 uM/ml after 24 hrs by kirby-bauer method; type: functional; settings: ATCC 35218, 24 h, read-out: IZ
Curvularia lunata [12] = test: Antifungal activity against Curvularia lunata MTCC 581 at 20 uM/ml after 48 hrs by paper disc diffusion method; type: functional; settings: MTCC 581, 48 h, read-out: IZ
Trichoderma viride [13] = test: Antifungal activity against Trichoderma viride MTCC 1107 at 20 uM/ml after 48 hrs by paper disc diffusion method; type: functional; settings: for zone of inhibition at 20 µM: MTCC 1107, 48 h, read-out: IZ
[14] = test system: Burkholderia pseudomallei; test: Antibacterial activity against Burkholderia pseudomallei NTCC 10274 at 80 uM/ml after 24 hrs by kirby-bauer method; type: functional; settings: NTCC 10274, 24 h, read-out: IZ
Escherichia coli [15] = test: Antibacterial activity against Escherichia coli ATCC 35218 at 20 uM/ml after 24 hrs by kirby-bauer method; type: functional; settings: for zone of inhibition at 20 µM: ATCC 35218, 24 h, read-out: IZ
Curvularia lunata [16] = test: Antifungal activity against Curvularia lunata MTCC 581 at 40 uM/ml after 48 hrs by paper disc diffusion method; type: functional; settings: MTCC 581, 48 h, read-out: IZ
Curvularia lunata [17] = test: Antifungal activity against Curvularia lunata MTCC 581 at 160 uM/ml after 48 hrs by paper disc diffusion method; type: functional; settings: MTCC 581, 48 h, read-out: IZ
Curvularia lunata [18] = test: Antifungal activity against Curvularia lunata MTCC 581 at 80 uM/ml after 48 hrs by paper disc diffusion method; type: functional; settings: MTCC 581, 48 h, read-out: IZ
Aspergillus niger [19] = test: Antifungal activity against Aspergillus niger MTCC 1108 at 160 uM/ml after 48 hrs by paper disc diffusion method; type: functional; settings: for zone of inhibition at 160 µM: MTCC 1108, 48 h, read-out: IZ
Salmonella typhimurium [20] = test: Antibacterial activity against Salmonella typhimurium ATCC 23564 at 80 uM/ml after 24 hrs by kirby-bauer method; type: functional, Salmonella enterica subsp. enterica serovar Typhimurium; settings: Salmonella enterica, ATCC 23564, 24 h; read-out: IZ
[21] = test system: Burkholderia pseudomallei; test: Antibacterial activity against Burkholderia pseudomallei NTCC 10274 at 40 uM/ml after 24 hrs by kirby-bauer method; type: functional; settings: NTCC 10274, 24 h, read-out: IZ
Pseudomonas aeruginosa [22] = test: Antibacterial activity against Pseudomonas aeruginosa ATCC 15499 at 160 uM/ml after 24 hrs by kirby-bauer method; type: functional; settings: for zone of inhibition at 160 µM: ATCC 15499, 24 h, read-out: IZ
Trichoderma viride [23] = test: Antifungal activity against Trichoderma viride MTCC 1107 at 160 uM/ml after 48 hrs by paper disc diffusion method; type: functional; settings: MTCC 1107, 48 h, read-out: IZ
Aspergillus niger [24] = test: Antifungal activity against Aspergillus niger MTCC 1108 at 80 uM/ml after 48 hrs by paper disc diffusion method; type: functional; settings: MTCC 1108, 48 h, read-out: IZ
Pseudomonas aeruginosa [25] = test: Antibacterial activity against Pseudomonas aeruginosa ATCC 15499 at 20 uM/ml after 24 hrs by kirby-bauer method; type: functional; settings: ATCC 15499, 24 h, read-out: IZ
Pseudomonas aeruginosa [26] = test: Antibacterial activity against Pseudomonas aeruginosa ATCC 15499 at 40 uM/ml after 24 hrs by kirby-bauer method; type: functional; settings: ATCC 15499, 24 h, read-out: IZ
Aspergillus niger [27] = test: Antifungal activity against Aspergillus niger MTCC 1108 at 40 uM/ml after 48 hrs by paper disc diffusion method; type: functional
Pseudomonas aeruginosa [28] = test: Antibacterial activity against Pseudomonas aeruginosa ATCC 15499 at 80 uM/ml after 24 hrs by kirby-bauer method; type: functional; settings: ATCC 15499, 24 h, read-out: IZ
Aspergillus niger [29] = test: Antifungal activity against Aspergillus niger MTCC 1108 at 20 uM/ml after 48 hrs by paper disc diffusion method; type: functional
Aspergillus flavus [30] = test: Antifungal activity against Aspergillus flavus MTCC 1021 at 20 uM/ml after 48 hrs by paper disc diffusion method; type: functional
Aspergillus flavus [31] = test: Antifungal activity against Aspergillus flavus MTCC 1021 at 80 uM/ml after 48 hrs by paper disc diffusion method; type: functional
Aspergillus flavus [32] = test: Antifungal activity against Aspergillus flavus MTCC 1021 at 40 uM/ml after 48 hrs by paper disc diffusion method; type: functional

SMILES: COc1cc(/C=C/C(=O)C2=C(/C=C/c3ccc(O)c(OC)c3)NC(=O)NC2c2ccc(O)c(OC)c2)ccc1O (stereo not given)
- zone of inhibition at 20 µM [1]: 10 mm
- zone of inhibition (Trichoderma viride [2]): 16 mm
- zone of inhibition at 80 µM (Trichoderma viride [3]): 18 mm
- zone of inhibition at 40 µM (Escherichia coli [4]): 14 mm
- inhibition zone (IZ) (Aspergillus flavus [5]): inactive
- IC50 (HCT-116): 100 uM/ml
- inhibition zone (IZ) (Staphylococcus aureus): inactive
- zone of inhibition at 160 µM (Escherichia coli [6]): 19 mm
- zone of inhibition at 160 µM (Salmonella typhimurium [7]; Salmonella enterica, ATCC 23564, 24 h, read-out: IZ): 22 mm
- zone of inhibition at 40 µM (Salmonella typhimurium [8]): 16 mm
- zone of inhibition at 160 µM [9]: 16 mm
- IC50 (HepG2): 25 uM/ml
- IC50 (QG-56): 50 uM/ml
- zone of inhibition at 20 µM (Salmonella typhimurium [10]): 13 mm
- zone of inhibition at 80 µM (Escherichia coli [11]): 17 mm
- zone of inhibition at 20 µM (Curvularia lunata [12]): 13 mm
- zone of inhibition at 20 µM (Trichoderma viride [13]): 15 mm
- zone of inhibition at 80 µM [14]: 16 mm
- zone of inhibition at 20 µM (Escherichia coli [15]): 11 mm
- zone of inhibition at 40 µM (Curvularia lunata [16]): 17 mm
- zone of inhibition at 160 µM (Curvularia lunata [17]): 21 mm
- zone of inhibition at 80 µM (Curvularia lunata [18]): 18 mm
- inhibition zone (IZ) (Aspergillus niger [19]): inactive
- zone of inhibition at 80 µM (Salmonella typhimurium [20]): 19 mm
- zone of inhibition at 40 µM [21]: 14 mm
- inhibition zone (IZ) (Pseudomonas aeruginosa [22]): inactive
- zone of inhibition at 160 µM (Trichoderma viride [23]): 21 mm

SMILES: COc1ccc(C2NC(=O)NC(/C=C/c3ccc(O)c(OC)c3)=C2C(=O)/C=C/c2ccc(O)c(OC)c2)cc1 (stereo not given)
- zone of inhibition at 20 µM [1]: 11 mm
- zone of inhibition (Trichoderma viride [2]): 16 mm
- zone of inhibition at 80 µM (Aspergillus niger [24]): 9 mm
- zone of inhibition at 20 µM (Pseudomonas aeruginosa [25]): 13 mm
- zone of inhibition at 80 µM (Trichoderma viride [3]): 17 mm
- inhibition zone (IZ) (Escherichia coli [4]): inactive
- inhibition zone (IZ) (Aspergillus flavus [5]): inactive
- IC50 (HCT-116): 100 uM/ml
- inhibition zone (IZ) (Staphylococcus aureus): inactive
- zone of inhibition at 160 µM (Escherichia coli [6]): 12 mm
- inhibition zone (IZ) (Salmonella typhimurium [7]): inactive
- zone of inhibition at 160 µM [9]: 23 mm
- IC50 (HepG2): 50 uM/ml
- zone of inhibition at 40 µM (Pseudomonas aeruginosa [26]): 19 mm
- IC50 (QG-56): 50 uM/ml
- inhibition zone (IZ) (Aspergillus niger [27]): inactive
- zone of inhibition at 80 µM (Escherichia coli [11]): 9 mm
- zone of inhibition at 20 µM (Curvularia lunata [12]): 11 mm
- zone of inhibition at 20 µM (Trichoderma viride [13]): 14 mm
- zone of inhibition at 80 µM (Pseudomonas aeruginosa [28]): 21 mm
- inhibition zone (IZ) (Aspergillus niger [29]): inactive
- zone of inhibition at 80 µM [14]: 19 mm
- inhibition zone (IZ) (Escherichia coli [15]): inactive
- zone of inhibition at 40 µM (Curvularia lunata [16]): 14 mm
- zone of inhibition at 160 µM (Curvularia lunata [17]): 17 mm
- zone of inhibition at 80 µM (Curvularia lunata [18]): 16 mm
- zone of inhibition at 160 µM (Aspergillus niger [19]): 11 mm
- zone of inhibition at 40 µM [21]: 15 mm
- zone of inhibition at 160 µM (Pseudomonas aeruginosa [22]): 23 mm
- zone of inhibition at 160 µM (Trichoderma viride [23]): 19 mm

SMILES: COc1cc(/C=C/C(=O)C2=C(/C=C/c3ccc(O)c(OC)c3)NC(=O)NC2c2ccccc2O)ccc1O (stereo not given)
- inhibition zone (IZ) [1]: inactive
- inhibition zone (IZ) (Trichoderma viride [2]): inactive
- zone of inhibition at 80 µM (Aspergillus niger [24]): 11 mm
- zone of inhibition at 20 µM (Pseudomonas aeruginosa [25]): 18 mm
- zone of inhibition at 80 µM (Trichoderma viride [3]): 9 mm
- zone of inhibition at 40 µM (Escherichia coli [4]): 18 mm
- zone of inhibition at 160 µM (Aspergillus flavus [5]; MTCC 1021, 48 h, read-out: IZ): 9 mm
- inhibition zone (IZ) (Aspergillus flavus [30]): inactive
- IC50 (HCT-116): 100 uM/ml
- inhibition zone (IZ) (Staphylococcus aureus): inactive
- zone of inhibition at 160 µM (Escherichia coli [6]): 22 mm
- inhibition zone (IZ) (Salmonella typhimurium [7]): inactive
- zone of inhibition at 160 µM [9]: 19 mm
- IC50 (HepG2): 100 uM/ml
- inhibition zone (IZ) (Aspergillus flavus [31]): inactive
- zone of inhibition at 40 µM (Pseudomonas aeruginosa [26]): 19 mm
- IC50 (QG-56): 100 uM/ml
- zone of inhibition at 40 µM (Aspergillus niger [27]; MTCC 1108, 48 h, read-out: IZ): 9 mm
- zone of inhibition at 80 µM (Escherichia coli [11]): 19 mm
- zone of inhibition at 20 µM (Curvularia lunata [12]): 17 mm
- inhibition zone (IZ) (Trichoderma viride [13]): inactive
- zone of inhibition at 80 µM (Pseudomonas aeruginosa [28]): 21 mm
- inhibition zone (IZ) (Aspergillus niger [29]): inactive
- zone of inhibition at 80 µM [14]: 13 mm
- zone of inhibition at 20 µM (Escherichia coli [15]): 15 mm
- zone of inhibition at 40 µM (Curvularia lunata [16]): 20 mm
- zone of inhibition at 160 µM (Curvularia lunata [17]): 23 mm
- inhibition zone (IZ) (Aspergillus flavus [32]): inactive
- zone of inhibition at 80 µM (Curvularia lunata [18]): 21 mm
- zone of inhibition at 160 µM (Aspergillus niger [19]): 13 mm
- zone of inhibition at 40 µM [21]: 11 mm
- zone of inhibition at 160 µM (Pseudomonas aeruginosa [22]): 24 mm
- zone of inhibition at 160 µM (Trichoderma viride [23]): 11 mm
